Activity calls are given as the source filed them.

Test [1] has as its target T1, Methionyl-tRNA synthetase, putative (Trypanosoma brucei brucei, UniProt Q38C91).
T1 sequence (Q38C91 whole entry): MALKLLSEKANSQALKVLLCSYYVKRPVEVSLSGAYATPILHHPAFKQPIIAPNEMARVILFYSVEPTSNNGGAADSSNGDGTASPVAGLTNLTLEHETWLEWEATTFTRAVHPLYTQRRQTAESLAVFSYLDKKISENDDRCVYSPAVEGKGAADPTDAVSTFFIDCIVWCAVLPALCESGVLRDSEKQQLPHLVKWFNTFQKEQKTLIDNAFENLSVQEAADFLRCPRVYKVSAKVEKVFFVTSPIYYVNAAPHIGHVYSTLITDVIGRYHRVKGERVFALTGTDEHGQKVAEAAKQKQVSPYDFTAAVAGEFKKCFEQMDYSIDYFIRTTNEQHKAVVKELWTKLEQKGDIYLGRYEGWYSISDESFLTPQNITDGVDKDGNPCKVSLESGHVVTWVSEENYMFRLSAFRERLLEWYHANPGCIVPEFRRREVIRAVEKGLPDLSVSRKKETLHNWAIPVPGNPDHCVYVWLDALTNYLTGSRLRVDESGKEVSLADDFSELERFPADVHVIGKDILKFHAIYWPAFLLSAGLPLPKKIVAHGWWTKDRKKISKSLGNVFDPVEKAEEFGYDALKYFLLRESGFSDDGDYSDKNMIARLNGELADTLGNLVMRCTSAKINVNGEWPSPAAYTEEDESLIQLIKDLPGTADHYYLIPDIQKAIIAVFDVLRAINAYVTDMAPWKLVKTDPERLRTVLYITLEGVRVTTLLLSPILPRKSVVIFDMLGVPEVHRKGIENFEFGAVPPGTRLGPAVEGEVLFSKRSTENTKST
The format is functional, Trypanosoma brucei brucei strain 927/4 GUTat10.1.

Test [2] can be described thus: Counterscreen for inhibitors of Trypanosoma brucei methionyl tRNA synthetase (MetRS): Luminescence-based cell-based high throughput dose response assay to identify compounds that are cytotoxic to Jurkat human T lymphocyte cells. The format is functional. (A counterscreen serves to expose hits that act by an unwanted route or on another target.)
Test [3] addresses T1, Methionyl-tRNA synthetase, putative. Type of test: functional, Trypanosoma brucei brucei strain 927/4 GUTat10.1. The source holds these as a separate data set.
Test [4] concerns the target Nuclear receptor subfamily 5 group A member 2 (Homo sapiens, UniProt O00482). The format is functional, cell-based.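 Further: HEK293T cells transfected with LRH-1 and a StAR promoter luciferase reporter; potency for inhibitors that lower LRH-1 driven reporter light.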
The next test deals with Steroidogenic factor 1 (Homo sapiens, UniProt Q13285). In words: Counterscreen for inverse agonists of the liver receptor homolog-1 (LRH-1; NR5A2): Luminescence-based cell-based high throughput dose response assay to identify inverse agonists of the Steroidogenic Factor 1 Nuclear Receptor (SF1; NR5A1). Type of test: functional.
Sequence of Steroidogenic factor 1 (Q13285 whole entry): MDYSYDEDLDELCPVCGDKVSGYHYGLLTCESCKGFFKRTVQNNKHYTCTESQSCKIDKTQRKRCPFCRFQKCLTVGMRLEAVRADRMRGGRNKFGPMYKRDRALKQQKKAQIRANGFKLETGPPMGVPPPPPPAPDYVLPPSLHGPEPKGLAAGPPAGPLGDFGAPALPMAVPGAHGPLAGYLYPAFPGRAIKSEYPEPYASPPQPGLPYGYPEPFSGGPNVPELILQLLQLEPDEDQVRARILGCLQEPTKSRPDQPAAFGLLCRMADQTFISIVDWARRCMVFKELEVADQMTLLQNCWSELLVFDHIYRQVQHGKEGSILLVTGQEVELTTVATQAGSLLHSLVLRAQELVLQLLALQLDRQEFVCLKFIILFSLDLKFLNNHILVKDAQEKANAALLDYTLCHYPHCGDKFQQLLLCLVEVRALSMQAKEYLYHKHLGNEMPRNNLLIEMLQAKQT
Test [5] in a line: StAR promoter reporter inhibition counter-screen, dose response, counter-screen for LRH-1 inverse agonist project, cell-based, luminescence, luciferase reporter (AID 651969). Type of test: functional.
The target of test [6] is T2, Carboxy-terminal domain RNA polymerase II polypeptide A small phosphatase 1 (Homo sapiens, UniProt Q9GZU7).
T2 sequence (Q9GZU7 whole entry): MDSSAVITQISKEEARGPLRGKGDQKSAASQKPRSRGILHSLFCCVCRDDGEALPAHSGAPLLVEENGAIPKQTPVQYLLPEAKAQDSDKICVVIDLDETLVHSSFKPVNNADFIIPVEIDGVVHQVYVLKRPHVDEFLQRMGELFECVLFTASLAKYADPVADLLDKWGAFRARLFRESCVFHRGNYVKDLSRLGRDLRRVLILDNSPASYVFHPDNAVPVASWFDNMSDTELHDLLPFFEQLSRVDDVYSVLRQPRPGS
Description: inhibitors of CTDSP1, concentration-response testing, biochemical assay, absorbance-based, actives from ultra-high-throughput screening (AID 540297). The format is functional.

For test [7], the target named is T3, Small ubiquitin-related modifier 1 (Homo sapiens, UniProt P63165). Description: inhibitors of SUMO1 peptide binding, dose response, biochemical, fluorescence polarization, uHTS hits (AID 624382). The format is functional. As to conditions: read-out: IC50_Mean. Background: In fluorescence polarisation assays a small probe gives low polarisation when free and higher when bound to something large.
T3 sequence (P63165 whole entry): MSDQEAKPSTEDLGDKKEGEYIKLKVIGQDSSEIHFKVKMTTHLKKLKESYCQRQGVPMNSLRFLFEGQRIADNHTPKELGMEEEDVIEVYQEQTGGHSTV

For test [8], the target named is T3, Small ubiquitin-related modifier 1. Description: inhibitors of SUMO1 partner interactions, dose response, biochemical, FRET (AID 624383). Type of test: functional. As to conditions: read-out: IC50_Mean.
A further test concerns the target T4, Caspase-3 (Homo sapiens, UniProt P42574).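 Further: Dose-response selectivity test against caspase-3 for candidate inhibitors of sentrin-specific proteases (SENPs).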
T4 sequence (P42574 whole entry): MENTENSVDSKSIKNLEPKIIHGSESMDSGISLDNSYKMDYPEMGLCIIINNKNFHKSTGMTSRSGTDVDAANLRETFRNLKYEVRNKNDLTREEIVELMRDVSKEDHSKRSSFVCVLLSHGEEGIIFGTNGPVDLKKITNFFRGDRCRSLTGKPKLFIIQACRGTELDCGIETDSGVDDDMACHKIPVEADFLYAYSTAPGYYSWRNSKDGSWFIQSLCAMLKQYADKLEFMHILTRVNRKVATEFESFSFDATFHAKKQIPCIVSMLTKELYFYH
The format is functional.

The target in test [9] is T5, Sentrin-specific protease 7 (Homo sapiens, UniProt Q9BQF6).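 Further: Luminescence-based dose-response confirmation of ultra-high-throughput screening hits, measuring inhibition of SENP7.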
T5 sequence (Q9BQF6 whole entry): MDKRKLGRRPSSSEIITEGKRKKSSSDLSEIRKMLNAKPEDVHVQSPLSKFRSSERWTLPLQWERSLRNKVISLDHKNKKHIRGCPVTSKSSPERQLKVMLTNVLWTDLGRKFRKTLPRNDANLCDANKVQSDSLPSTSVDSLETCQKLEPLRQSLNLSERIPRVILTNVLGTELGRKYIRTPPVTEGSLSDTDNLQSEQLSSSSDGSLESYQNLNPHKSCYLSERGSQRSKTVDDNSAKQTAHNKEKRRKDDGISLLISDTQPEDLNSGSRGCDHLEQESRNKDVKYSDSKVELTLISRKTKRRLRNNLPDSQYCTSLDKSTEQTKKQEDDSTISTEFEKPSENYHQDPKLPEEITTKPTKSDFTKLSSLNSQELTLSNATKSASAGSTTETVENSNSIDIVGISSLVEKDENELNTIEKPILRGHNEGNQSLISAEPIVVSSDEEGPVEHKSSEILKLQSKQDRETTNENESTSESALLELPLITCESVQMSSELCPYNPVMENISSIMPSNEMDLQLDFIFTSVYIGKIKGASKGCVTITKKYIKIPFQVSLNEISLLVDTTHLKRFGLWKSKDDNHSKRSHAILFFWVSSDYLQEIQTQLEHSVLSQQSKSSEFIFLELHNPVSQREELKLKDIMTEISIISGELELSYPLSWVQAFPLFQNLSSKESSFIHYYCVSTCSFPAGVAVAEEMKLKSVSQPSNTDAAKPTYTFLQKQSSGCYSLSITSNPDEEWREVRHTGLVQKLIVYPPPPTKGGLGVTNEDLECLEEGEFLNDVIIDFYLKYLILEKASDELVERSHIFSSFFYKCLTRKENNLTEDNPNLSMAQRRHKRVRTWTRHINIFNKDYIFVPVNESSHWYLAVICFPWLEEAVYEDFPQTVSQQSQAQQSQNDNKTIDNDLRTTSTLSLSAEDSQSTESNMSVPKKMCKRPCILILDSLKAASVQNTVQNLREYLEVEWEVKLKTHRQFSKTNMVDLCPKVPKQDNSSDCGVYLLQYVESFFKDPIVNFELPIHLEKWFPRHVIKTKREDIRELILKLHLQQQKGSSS
Type of test: functional.

In test [10] the target is T6, Sentrin-specific protease 6 (Homo sapiens, UniProt Q9GZR1).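 Further: Luminescence-based dose-response confirmatory assay of SENP6 inhibition, following up an ultra-high-throughput screen.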
T6 sequence (Q9GZR1 whole entry): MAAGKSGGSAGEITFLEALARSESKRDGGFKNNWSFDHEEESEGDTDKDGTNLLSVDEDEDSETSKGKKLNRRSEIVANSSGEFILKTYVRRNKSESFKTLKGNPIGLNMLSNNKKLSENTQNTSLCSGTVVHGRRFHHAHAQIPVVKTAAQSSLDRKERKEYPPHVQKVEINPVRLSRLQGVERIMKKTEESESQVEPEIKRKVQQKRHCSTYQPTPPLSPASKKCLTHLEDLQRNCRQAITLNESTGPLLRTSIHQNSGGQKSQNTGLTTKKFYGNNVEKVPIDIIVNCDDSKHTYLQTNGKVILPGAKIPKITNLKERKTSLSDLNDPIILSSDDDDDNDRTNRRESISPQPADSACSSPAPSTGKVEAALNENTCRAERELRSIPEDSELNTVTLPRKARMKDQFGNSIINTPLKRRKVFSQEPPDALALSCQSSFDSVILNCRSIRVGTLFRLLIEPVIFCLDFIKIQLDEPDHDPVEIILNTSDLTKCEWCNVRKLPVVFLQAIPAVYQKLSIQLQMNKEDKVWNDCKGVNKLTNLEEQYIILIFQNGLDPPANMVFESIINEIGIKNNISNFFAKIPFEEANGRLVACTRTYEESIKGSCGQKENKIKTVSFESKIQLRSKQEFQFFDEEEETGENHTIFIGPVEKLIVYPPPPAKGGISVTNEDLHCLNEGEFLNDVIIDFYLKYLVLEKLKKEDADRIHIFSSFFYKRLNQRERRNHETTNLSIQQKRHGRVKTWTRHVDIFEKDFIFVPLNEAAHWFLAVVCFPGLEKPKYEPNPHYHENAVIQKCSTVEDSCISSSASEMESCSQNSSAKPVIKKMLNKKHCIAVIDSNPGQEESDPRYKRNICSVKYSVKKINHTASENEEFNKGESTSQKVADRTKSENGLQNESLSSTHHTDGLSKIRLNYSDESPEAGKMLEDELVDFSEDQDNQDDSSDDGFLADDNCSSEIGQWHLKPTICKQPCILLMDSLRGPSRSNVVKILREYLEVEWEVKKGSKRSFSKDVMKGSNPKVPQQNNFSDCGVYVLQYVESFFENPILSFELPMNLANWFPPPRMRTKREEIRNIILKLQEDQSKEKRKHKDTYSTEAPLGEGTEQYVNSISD
The format is functional.

For test [11], the target named is T7, Sentrin-specific protease 8 (Homo sapiens, UniProt Q96LD8).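 Further: luminescence read-out of SENP8 inhibition, dose-response confirmation following an ultra-high-throughput screen.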
T7 sequence (Q96LD8 whole entry): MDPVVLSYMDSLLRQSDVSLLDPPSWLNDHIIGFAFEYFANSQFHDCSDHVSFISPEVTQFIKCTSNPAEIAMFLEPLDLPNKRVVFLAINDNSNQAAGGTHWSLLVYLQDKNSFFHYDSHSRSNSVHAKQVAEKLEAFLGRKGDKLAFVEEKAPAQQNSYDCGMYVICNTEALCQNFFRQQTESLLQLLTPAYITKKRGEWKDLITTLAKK
Type of test: functional.

The target of test [12] is T8, Mitochondrial peptide methionine sulfoxide reductase (Bos taurus, UniProt P54149).
T8 sequence (P54149 whole entry): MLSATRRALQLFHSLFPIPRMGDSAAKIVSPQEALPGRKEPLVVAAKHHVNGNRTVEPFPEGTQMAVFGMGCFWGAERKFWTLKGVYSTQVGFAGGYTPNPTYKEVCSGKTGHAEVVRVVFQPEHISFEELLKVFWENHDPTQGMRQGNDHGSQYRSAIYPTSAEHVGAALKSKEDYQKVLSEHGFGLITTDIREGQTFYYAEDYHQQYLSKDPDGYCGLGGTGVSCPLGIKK
In words: Absorbance-based biochemical high throughput dose response assay for activators of Methionine sulfoxide reductase A (MsrA). The format is functional.

Another test concerns the target T9, Caspase-6 (Homo sapiens, UniProt P55212).
T9 sequence (P55212 whole entry): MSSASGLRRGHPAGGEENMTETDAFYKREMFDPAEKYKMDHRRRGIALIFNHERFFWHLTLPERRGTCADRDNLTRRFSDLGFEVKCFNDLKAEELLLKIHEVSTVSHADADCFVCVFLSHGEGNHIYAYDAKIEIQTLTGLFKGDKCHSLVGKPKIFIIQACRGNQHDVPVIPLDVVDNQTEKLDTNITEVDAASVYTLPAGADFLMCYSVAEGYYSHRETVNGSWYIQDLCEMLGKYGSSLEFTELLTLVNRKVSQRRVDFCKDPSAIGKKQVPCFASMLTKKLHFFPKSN
In words: human caspase-6 inhibitors, dose response, biochemical, VEID-R110 fluorescence, cherry-pick (AID 720632).

In test [13] the target is T10, Tyrosyl-DNA phosphodiesterase 2 (Homo sapiens, UniProt O95551).
T10 sequence (O95551 whole entry): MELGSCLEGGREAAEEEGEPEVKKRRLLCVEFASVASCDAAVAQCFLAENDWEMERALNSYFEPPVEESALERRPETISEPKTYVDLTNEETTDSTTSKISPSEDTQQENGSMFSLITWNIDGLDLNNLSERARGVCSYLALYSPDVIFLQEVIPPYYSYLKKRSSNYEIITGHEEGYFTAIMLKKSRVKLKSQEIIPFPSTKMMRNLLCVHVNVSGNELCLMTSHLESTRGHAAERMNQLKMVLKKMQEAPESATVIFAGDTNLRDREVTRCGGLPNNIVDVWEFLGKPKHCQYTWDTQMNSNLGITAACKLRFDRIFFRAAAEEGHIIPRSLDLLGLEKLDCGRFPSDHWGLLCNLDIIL
Description: human TDP2 enzyme inhibitors, dose response, biochemical, epi absorbance, IC50 (AID 743297).

Sequence of Nuclear receptor subfamily 5 group A member 2 (O00482 whole entry): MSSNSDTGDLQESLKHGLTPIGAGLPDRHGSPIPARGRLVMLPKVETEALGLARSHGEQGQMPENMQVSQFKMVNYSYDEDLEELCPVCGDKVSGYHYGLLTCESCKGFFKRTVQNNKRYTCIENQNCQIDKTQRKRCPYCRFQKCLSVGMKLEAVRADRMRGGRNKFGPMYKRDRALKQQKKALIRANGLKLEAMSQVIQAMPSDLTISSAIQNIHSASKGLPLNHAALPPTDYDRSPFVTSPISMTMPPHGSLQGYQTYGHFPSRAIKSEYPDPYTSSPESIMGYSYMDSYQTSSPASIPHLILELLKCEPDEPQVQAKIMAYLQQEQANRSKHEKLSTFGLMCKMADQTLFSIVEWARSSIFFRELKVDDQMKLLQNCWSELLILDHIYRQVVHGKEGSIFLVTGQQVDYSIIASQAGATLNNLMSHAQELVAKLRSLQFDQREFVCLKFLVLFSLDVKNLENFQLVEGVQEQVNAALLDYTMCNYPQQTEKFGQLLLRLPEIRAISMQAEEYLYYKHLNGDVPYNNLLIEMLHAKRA

In the case of `O=C(NCc1nc2ccccc2[nH]1)C1=C[C@H](C2CCCCC2)C[C@H](OCCCCO)O1`, the IC50 in [1] was 5.64 µM (active); in [2], 28.8 µM (inactive); in test [3] it was 3.14 µM (active).

Take `COCC(=O)NC1CCN(CC(=O)Nc2ccc(OC)cc2[N+](=O)[O-])CC1`: the IC50 in [4] was 3.9 µM (active); on Steroidogenic factor 1, 1.37 µM (active); in [5], 35.9 µM (inactive).

`COc1ccc(Nc2nnc(-c3ccncc3)s2)cc1Cl`: the results for the IC50 in test [6], in [7] and in test [8] were 4.85 µM (active), > 66.6 µM (inactive) and 6.3 µM (active), respectively.

Consider `COc1ccc(S(=O)(=O)Nc2ccc3c(c2)n(C)c(=O)n3C)cc1F`, for which the results for the IC50 (in test [4]; on Steroidogenic factor 1; in test [5]) were 8.04 µM (active), 9.64 µM (active) and 34.5 µM (inactive), respectively.

Take `CC1CCCC(NC(=O)COC(=O)c2ccc([N+](=O)[O-])s2)C1C` (configuration not stated): the IC50 at Caspase-3 was 13.7 µM (active); in test [9], 8.12 µM (active); in [10] it was 6.5 µM (active); in test [11], 5.63 µM (active); in [13], 85.5 µM (inactive). Also, in test [12], the EC50 (commonly the concentration needed to bring the measured effect to its halfway point) was 22.9 µM (inactive). The concentration at half-maximal activity (AC50) – broadly, the concentration at which the activity in the assay is half-maximal – on Caspase-6 is 8.44 µM (active).

Consider `O=C(CSc1nc2ccc[nH]c-2n1)Nc1ccc2c(c1)OCO2`, for which the IC50 in [2] is 83.3 µM (inactive).

As to `O=C(CSc1nc2ncccc2[nH]1)Nc1ccc2c(c1)OCO2`, the figures for the IC50 in test [1] and in [3] were 81.6 µM (inactive) and 30.3 µM (inactive), respectively.

The values are drawn from ChEMBL document CHEMBL1201862, “PubChem BioAssay data set” (2004).
